The subject of one series is AMPAR. In words: AMPA-induced currents in cultured hippocampal neurons. Type of series: cell-based. The procedure:
Whole cell patch-clamp recordings were performed under voltage-clamp mode using an Axopatch 200B or 1D patch-clamp amplifier (Molecular Devices). Whole-cell currents were recorded at a holding potential of −60 mV unless indicated elsewhere, and signals were filtered at 2 kHz, digitized at 10 kHz (Digidata 1322A). Recording pipettes (3-5 MΩ) were filled with the intracellular solution that contained (mM): CsCl 140, HEPES 10, Mg-ATP 4, QX-314 5, pH 7.20; osmolarity, 290-295 mOsm. BAPTA (10 mM) was added in the intracellular solution (otherwise specified). The coverslips were continuously superfused with the extracellular solution containing (mM): NaCl 140, KCl 5.4, HEPES 10, CaCl2 1.3, glucose 20, pH 7.4; osmolarity, 305-315 mOsm. NMDA, GABA or AMPA induced currents were either applied by NMDA, GABA, AMPA either through perfusion fast-step (Warner Instruments). […]
Next, the inventor evaluated the selectivity profile for Npam02 on two other key ionotropic receptors of the central nervous system (CNS): α-amino-3-hydroxy-5-methyl-4-isoxazolepropionic acid receptor AMPAR, which are known to be a non-NMDA type ionotropic transmembrane receptor for glutamate that mediates fast synaptic transmission in the central nervous system (CNS) and GABA receptors which are the principal inhibitory ligand-gated ion channel receptor. […]

The nature of series [1]: Pharmacokinetics after i.v. injection, CSF and serum by HPLC-ECD. Type of series: in vivo, rat. The protocol: Npam43 was isolated from the CSF and serum matrix using high performance liquid chromatography and quantified via electrochemical detection. The system consisted of an ESA 582 pump (Bedford, Mass.), a pulse damper (Scientific Systems Inc., State College, Pa.), a Rheodyne Inert manual injector (model 9125i, 20 μL injection loop; Rohnert Park, Calif.), a Tosoh Bioscience Super ODS TSK column (2 μm particle, 2 mm×10 mm; Montgomeryville, Pa.), and an Antec Leyden Intro Electrochemical detector with VT-03 flow cell with a Ag/AgCl reference electrode (Vapplied=+800 mV; Leyden, The Netherlands). The mobile phase was a 20 mM phosphate buffer-acetonitrile (80:20, v/v) mixture, pH 7.0, flowed through the system at 0.1 mL/min. The column was maintained at 40° C. throughout the analysis and the injection volume was 8 uL. Prior to use, the mobile was filtered through a […] membrane and degassed using a vacuum pump and maintained under helium purging during experimental testing. EZChrome Elite software (Scientific Software, Pleasanton, Calif.) was used to acquire and analyze chromatographic data.
Samples were prepared by mixing aliquots (50:50) of the specimen with acetonitrile. The samples were mixed, allowed to rest at ambient temperature for 10 min and centrifuged at 5000 g for 5 min. Eight microliters of the supernatant was injected.
CSF and serum samples generated from the in vivo studies were thawed, and 8 μl was transferred to individual Eppendorf tubes. The internal standard (IS) of 2 μl of 0.5 μg/ml Npam50 was then added, followed by 22 μl of acetonitrile, after which samples were vortexed for 5-10 s and centrifuged for 5 min at 20,000×g to sediment precipitated protein. […]
An in-vivo pharmacological profile of Npam43 was evaluated using Sprague Dawley mature (˜300 g) rats. Npam43 was injected intravenously (i.v) at different doses ranging from 0.5-5 mg/kg and cerebrospinal fluid (CSF) and serum samples were extracted and analyzed using a high performance liquid chromatography electrochemical detection assay (HPLC-ECD). […]

The values below come from US11166924B2, “N-methyl-d-aspartate receptor allosteric modulators and methods for their use” (Qingdao Primedicine Pharmaceutical Company, Ltd., priority 2016, dated 2021).

Structures are written as SMILES.

Broadly, the half-life is how long it takes for the measured level to halve.

Consider `COc1cccc(/C=N/NC(=O)c2ccccc2C)c1O` [Npam02, (E)-N′-(2-hydroxy-3-methoxybenzylidene)-2-methylbenzohydrazide], for which the “Effect on AMPAR mediated currents” value in the series on AMPAR was “no observable effects”.
Take `CCOc1cc(Cl)c(Cl)c(/C=N/NC(=O)c2ccccc2Br)c1O` [Npam43, (E)-2-bromo-N′-(2,3-dichloro-5-ethoxy-6-hydroxybenzylidene)benzohydrazide]: the half-life in series [1] (Sprague-Dawley, rat, CSF, iv, rats, estimated) was 2.95 ± 0.6 h. In addition, the Blood-brain-barrier penetration result in series [1] (i.v. 0.5-5 mg/kg, Sprague Dawley rats) was “effective at penetrating the blood-brain-barrier (BBB)”. For the same molecule, the “Metabolic stability in the CSF and serum” value in series [1] (i.v., rats, FIG. 22) was “moderate metabolic stability”.
